Target: T1, TMV coat protein (TMV-CP; TMV CP) (Tobacco mosaic virus (vulgare), UniProt P69687)
T1 sequence (P69687 2-159): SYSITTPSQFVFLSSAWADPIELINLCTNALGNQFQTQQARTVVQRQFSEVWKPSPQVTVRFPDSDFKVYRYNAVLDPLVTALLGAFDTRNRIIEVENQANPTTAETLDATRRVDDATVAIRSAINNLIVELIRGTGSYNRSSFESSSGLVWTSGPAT
Experiment: microscale thermophoresis
Assay type: binding

In the case of Cc1csc(/C=C/C(=O)c2ccccc2OCCSc2nnc(-c3ccccc3)c(-c3ccccc3)n2)n1 [4o], the Kd is reported as 245 ± 63.9 µM.

From PMC9060900 (RSC Advances, 2019)
